How the values were obtained:
T47D = experiment: Antiproliferative activity against human T47D cells expressing PI3Kalpha H1047R mutant assessed as inhibition of cell proliferation measured after 72 hrs by CellTiter-Glo reagent based assay; format: functional
[1] = Cytotoxicity against human SK-BR-3 cells expressing wild type PI3Kalpha assessed as inhibition of cell proliferation measured after 72 hrs by CellTiter-Glo reagent based assay; format: toxicity
[2] = AUC(last) in CD-1 mouse at 10 mg/kg, po by LC/MS/MS analysis; format: ADME, organism-based; conditions: in vivo
[3] = Oral bioavailability in CD-1 mouse at 10 mg/kg by LC/MS/MS analysis; format: ADME, organism-based; conditions: in vivo

| EC50 (T47D) | AUC(0-t) [2] | bioavailability [3] | SMILES | EC50 at 72 h [1] |
| --- | --- | --- | --- | --- |
| 1 nM |  |  | Cc1cc(C(C)Nc2ccc(F)cc2C(=O)O)c2nc(N3CCN(CC(F)(F)F)CC3)n(C)c(=O)c2c1 (stereo not drawn) | 2000 nM |
| 1 nM |  |  | Cc1cc(C(C)Nc2ccc(Cl)cc2C(=O)O)c2nc(N3Cc4ccc(F)cc4C3)n(C)c(=O)c2c1 (stereo not drawn) | 2000 nM |
| 1 nM |  |  | Cc1cc(C(C)Nc2ccccc2C(=O)O)c2nc(N3Cc4ccc(C#N)cc4C3)n(C)c(=O)c2c1 (stereo not drawn) | > 15000 nM |
| 500 nM |  |  | Cc1cc(C(C)Nc2ccccc2C(=O)O)c2nc(N3CC[Si](C)(C)CC3)n(C)c(=O)c2c1 (stereo not drawn) | 2000 nM |
| 500 nM |  |  | CC(Nc1ccccc1C(=O)O)c1cc(Cl)cc2c(=O)n(C)c(N3CCN(CC(F)(F)F)CC3)nc12 (stereo not drawn) | > 15000 nM |
| 500 nM |  |  | CC(Nc1ccccc1C(=O)O)c1cc(C(F)(F)F)cc2c(=O)n(C)c(N3CCN(CC(F)(F)F)CC3)nc12 (stereo not drawn) | 2000 nM |
| 1 nM |  |  | CC(Nc1ccc(F)cc1C(=O)O)c1cc(F)cc2c(=O)n(C)c(N3CCN(CC(F)(F)F)CC3)nc12 (stereo not drawn) | > 15000 nM |
| 1 nM | 10700 ng·h/mL | 61% | Cc1cc(C(C)Nc2ccc(F)cc2C(=O)O)c2nc(N3CCC(C)(C)CC3)n(C)c(=O)c2c1 (stereo not drawn) | 2000 nM |

Source: ChEMBL document CHEMBL5579870, “Integrating Neuroprotective and Anti-inflammatory Strategies in the Development of PI3K Inhibitors for Enhanced Cancer Therapy” (ACS Med Chem Lett, 2024)
